# Reference: article PMC4365270 (Cancer Chemotherapy and Pharmacology, 2015)
# Entries after “also recorded” stand apart in the source; their conditions may differ. Read-outs that look alike come from different tables or passages of the source.
# What was measured:
# cIAP-1 [1] = biological target: T1, cIAP-1 (Homo sapiens, UniProt Q13490); assay: cIAP1 degradation in PBMCs, Western blot; type: in vivo
# T1 construct: endogenous in cells; host or cells: peripheral blood mononuclear cells (PBMCs) of patients
# Description: Pharmacokinetic samples were taken from all patients on day 1 (predose, 0.5, 1, 2, 3, 4, 6, 8, 12, 18 h postdose) and on day 5 (predose, 0.5, 1, 2, 3, 4, 6, 8 h postdose) of the first cycle. In addition, for exploratory PD analysis of IAP inhibition and activation of apoptosis, optional skin and tumor biopsies were taken from consenting patients on days 1 (predose) and 5 and blood samples on day 1 (predose, 1, 3, 6, 8, 12 h postdose), day 2 (predose), and day 5 (3 h postdose).
# cIAP-1 levels were measured in tumor tissue and surrogate tissue as available. Peripheral blood mononuclear cells (PBMCs) were analyzed for DEBIO1143-induced cIAP-1 degradation. Plasma native cytokeratin-18 (M65) or caspase-3 generated cytokeratin-18 fragments (M30), interleukin 8 (IL8), chemokine ligand 2 (CCL2, MCP1), and tumor necrosis factor α (TNFα) were measured by ELISA as markers of epithelial cell death and inflammation on days 1 (predose, 1, 3, 6, and 12 h postdose), 2, and 5.
# For the detection of cIAP-1 in paraffin-embedded human tissue, a validated immunohistochemical (IHC) assay was used. DEBIO1143-induced cIAP-1 degradation was measured in PBMCs using Western blot. Plasma biomarkers were measured through commercial ELISAs. All laboratory analyses were performed by MPI Research, Inc. (PK) and Mosaic Laboratory, LLC (PD).
# [2] = set-up: method as in PMID 23813446; conditions: mice; cited from earlier work
# cIAP-1 [3] = test system: cIAP-1; set-up: method as in PMID 21443232; conditions: cited from earlier work
# [4] = set-up: method as in PMID 23813446; conditions: dogs; cited from earlier work
# T1 sequence (Q13490 whole entry): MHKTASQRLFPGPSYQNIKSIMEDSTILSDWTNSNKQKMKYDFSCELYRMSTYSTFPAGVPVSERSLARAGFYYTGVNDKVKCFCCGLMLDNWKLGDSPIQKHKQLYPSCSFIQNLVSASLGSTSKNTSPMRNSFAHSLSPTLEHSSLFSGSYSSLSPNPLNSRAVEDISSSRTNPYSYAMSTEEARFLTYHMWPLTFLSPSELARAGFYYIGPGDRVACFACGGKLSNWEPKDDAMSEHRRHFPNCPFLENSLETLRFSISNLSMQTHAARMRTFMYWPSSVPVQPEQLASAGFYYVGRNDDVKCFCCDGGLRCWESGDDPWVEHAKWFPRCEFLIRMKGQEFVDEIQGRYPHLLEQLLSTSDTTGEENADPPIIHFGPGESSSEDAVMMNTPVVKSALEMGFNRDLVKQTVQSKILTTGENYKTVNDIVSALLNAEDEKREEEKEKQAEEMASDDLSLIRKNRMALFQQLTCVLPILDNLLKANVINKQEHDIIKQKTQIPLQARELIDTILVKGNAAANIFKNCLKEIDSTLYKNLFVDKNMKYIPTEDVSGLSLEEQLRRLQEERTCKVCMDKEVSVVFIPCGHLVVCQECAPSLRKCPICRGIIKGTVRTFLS
compound,measurement,setting,value
CN[C@@H](C)C(=O)N[C@H]1CN(C(=O)CC(C)C)CC[C@H]2CC[C@@H](C(=O)NC(c3ccccc3)c3ccccc3)N2C1=O [DEBIO1143],"cIAP1/Actin in PBMC, mean (SD)","cIAP-1 [1]; 120 mg, 1h, N=1",2% (0) % from baseline
same,"cIAP1/Actin in PBMC, median (range)","cIAP-1 [1]; 120 mg, 1h, N=1",2 (2-2) % from baseline
same,"cIAP1/Actin in PBMC, mean (SD)","cIAP-1 [1]; 120 mg, 3h, N=1",2% (0) % from baseline
same,"cIAP1/Actin in PBMC, median (range)","cIAP-1 [1]; 120 mg, 3h, N=1",2 (2-2) % from baseline
same,"cIAP1/Actin in PBMC, mean (SD)","cIAP-1 [1]; 120 mg, 6h, N=1",4% (0) % from baseline
same,"cIAP1/Actin in PBMC, median (range)","cIAP-1 [1]; 120 mg, 6h, N=1",4 (4-4) % from baseline
same,"cIAP1/Actin in PBMC, mean (SD)","cIAP-1 [1]; 120 mg, 12h, N=1",3% (0) % from baseline
same,"cIAP1/Actin in PBMC, median (range)","cIAP-1 [1]; 120 mg, 12h, N=1",3 (3-3) % from baseline
same,"cIAP1/Actin in PBMC, mean (SD)","cIAP-1 [1]; 120 mg, 24h, N=1",4% (0) % from baseline
same,"cIAP1/Actin in PBMC, median (range)","cIAP-1 [1]; 120 mg, 24h, N=1",4 (4-4) % from baseline
same,"cIAP1/Actin in PBMC, mean (SD)","cIAP-1 [1]; 120 mg, 99h, N=1",5% (0) % from baseline
same,"cIAP1/Actin in PBMC, median (range)","cIAP-1 [1]; 120 mg, 99h, N=1",5 (5-5) % from baseline
same,"cIAP1/Actin in PBMC, mean (SD)","cIAP-1 [1]; 180 mg, 1h, N=6",34% (31) % from baseline
same,"cIAP1/Actin in PBMC, median (range)","cIAP-1 [1]; 180 mg, 1h, N=6",33 (0-78) % from baseline
same,"cIAP1/Actin in PBMC, mean (SD)","cIAP-1 [1]; 180 mg, 3h, N=6",20% (25) % from baseline
same,"cIAP1/Actin in PBMC, median (range)","cIAP-1 [1]; 180 mg, 3h, N=6",12 (3-68) % from baseline
same,"cIAP1/Actin in PBMC, mean (SD)","cIAP-1 [1]; 180 mg, 6h, N=7",6% (8) % from baseline
same,"cIAP1/Actin in PBMC, median (range)","cIAP-1 [1]; 180 mg, 6h, N=7",5 (0-24) % from baseline
same,"cIAP1/Actin in PBMC, mean (SD)","cIAP-1 [1]; 180 mg, 12h, N=3",8% (7) % from baseline
same,"cIAP1/Actin in PBMC, median (range)","cIAP-1 [1]; 180 mg, 12h, N=3",5 (4-16) % from baseline
same,"cIAP1/Actin in PBMC, mean (SD)","cIAP-1 [1]; 180 mg, 24h, N=6",9% (10) % from baseline
same,"cIAP1/Actin in PBMC, median (range)","cIAP-1 [1]; 180 mg, 24h, N=6",5 (3-29) % from baseline
same,"cIAP1/Actin in PBMC, mean (SD)","cIAP-1 [1]; 180 mg, 99h, N=6",2% (2) % from baseline
same,"cIAP1/Actin in PBMC, median (range)","cIAP-1 [1]; 180 mg, 99h, N=6",0 (0-5) % from baseline
same,"cIAP1/Actin in PBMC, mean (SD)","cIAP-1 [1]; 260 mg, 1h, N=3",39% (33) % from baseline
same,"cIAP1/Actin in PBMC, median (range)","cIAP-1 [1]; 260 mg, 1h, N=3",44 (4-70) % from baseline
same,"cIAP1/Actin in PBMC, mean (SD)","cIAP-1 [1]; 260 mg, 3h, N=3",45% (50) % from baseline
same,"cIAP1/Actin in PBMC, median (range)","cIAP-1 [1]; 260 mg, 3h, N=3",24 (9-103) % from baseline
same,"cIAP1/Actin in PBMC, mean (SD)","cIAP-1 [1]; 260 mg, 6h, N=3",9% (4) % from baseline
same,"cIAP1/Actin in PBMC, median (range)","cIAP-1 [1]; 260 mg, 6h, N=3",8 (5-13) % from baseline
same,"cIAP1/Actin in PBMC, mean (SD)","cIAP-1 [1]; 260 mg, 12h, N=2",14% (5) % from baseline
same,"cIAP1/Actin in PBMC, median (range)","cIAP-1 [1]; 260 mg, 12h, N=2",14 (10-17) % from baseline
same,"cIAP1/Actin in PBMC, mean (SD)","cIAP-1 [1]; 260 mg, 24h, N=3",9% (7) % from baseline
same,"cIAP1/Actin in PBMC, median (range)","cIAP-1 [1]; 260 mg, 24h, N=3",6 (5-16) % from baseline
same,"cIAP1/Actin in PBMC, mean (SD)","cIAP-1 [1]; 260 mg, 99h, N=3",6% (3) % from baseline
same,"cIAP1/Actin in PBMC, median (range)","cIAP-1 [1]; 260 mg, 99h, N=3",6 (3-8) % from baseline
same,"cIAP1/Actin in PBMC, mean (SD)","cIAP-1 [1]; 400 mg, 1h, N=1",14% (0) % from baseline
same,"cIAP1/Actin in PBMC, median (range)","cIAP-1 [1]; 400 mg, 1h, N=1",14 (14-14) % from baseline
same,"cIAP1/Actin in PBMC, mean (SD)","cIAP-1 [1]; 400 mg, 3h, N=2",4% (2) % from baseline
same,"cIAP1/Actin in PBMC, median (range)","cIAP-1 [1]; 400 mg, 3h, N=2",4 (3-6) % from baseline
same,"cIAP1/Actin in PBMC, mean (SD)","cIAP-1 [1]; 400 mg, 6h, N=2",6% (4) % from baseline
same,"cIAP1/Actin in PBMC, median (range)","cIAP-1 [1]; 400 mg, 6h, N=2",6 (2-9) % from baseline
same,"cIAP1/Actin in PBMC, mean (SD)","cIAP-1 [1]; 400 mg, 24h, N=2",19% (26) % from baseline
same,"cIAP1/Actin in PBMC, median (range)","cIAP-1 [1]; 400 mg, 24h, N=2",19 (0-37) % from baseline
same,"cIAP1/Actin in PBMC, mean (SD)","cIAP-1 [1]; 400 mg, 99h, N=2",28% (31) % from baseline
same,"cIAP1/Actin in PBMC, median (range)","cIAP-1 [1]; 400 mg, 99h, N=2",28 (6-51) % from baseline
same,"cIAP1/Actin in PBMC, mean (SD)","cIAP-1 [1]; 600 mg, 1h, N=3",27% (9) % from baseline
same,"cIAP1/Actin in PBMC, median (range)","cIAP-1 [1]; 600 mg, 1h, N=3",25 (20-38) % from baseline
same,"cIAP1/Actin in PBMC, mean (SD)","cIAP-1 [1]; 600 mg, 3h, N=3",24% (11) % from baseline
same,"cIAP1/Actin in PBMC, median (range)","cIAP-1 [1]; 600 mg, 3h, N=3",18 (17-36) % from baseline
same,"cIAP1/Actin in PBMC, mean (SD)","cIAP-1 [1]; 600 mg, 6h, N=3",20% (11) % from baseline
same,"cIAP1/Actin in PBMC, median (range)","cIAP-1 [1]; 600 mg, 6h, N=3",17 (11-33) % from baseline
same,"cIAP1/Actin in PBMC, mean (SD)","cIAP-1 [1]; 600 mg, 12h, N=1",36% (0) % from baseline
same,"cIAP1/Actin in PBMC, median (range)","cIAP-1 [1]; 600 mg, 12h, N=1",36 (36-36) % from baseline
same,"cIAP1/Actin in PBMC, mean (SD)","cIAP-1 [1]; 600 mg, 24h, N=3",29% (36) % from baseline
same,"cIAP1/Actin in PBMC, median (range)","cIAP-1 [1]; 600 mg, 24h, N=3",14 (3-70) % from baseline
same,"cIAP1/Actin in PBMC, mean (SD)","cIAP-1 [1]; 600 mg, 99h, N=2",14% (19) % from baseline
same,"cIAP1/Actin in PBMC, median (range)","cIAP-1 [1]; 600 mg, 99h, N=2",14 (0-28) % from baseline
same,"cIAP1/Actin in PBMC, mean (SD)","cIAP-1 [1]; 900 mg, 1h, N=5",11% (8) % from baseline
same,"cIAP1/Actin in PBMC, median (range)","cIAP-1 [1]; 900 mg, 1h, N=5",9 (2-24) % from baseline
same,"cIAP1/Actin in PBMC, mean (SD)","cIAP-1 [1]; 900 mg, 3h, N=4",15% (23) % from baseline
same,"cIAP1/Actin in PBMC, median (range)","cIAP-1 [1]; 900 mg, 3h, N=4",3 (3-49) % from baseline
same,"cIAP1/Actin in PBMC, mean (SD)","cIAP-1 [1]; 900 mg, 6h, N=4",14% (13) % from baseline
same,"cIAP1/Actin in PBMC, median (range)","cIAP-1 [1]; 900 mg, 6h, N=4",11 (1-32) % from baseline
same,"cIAP1/Actin in PBMC, mean (SD)","cIAP-1 [1]; 900 mg, 12h, N=2",9% (2) % from baseline
same,"cIAP1/Actin in PBMC, median (range)","cIAP-1 [1]; 900 mg, 12h, N=2",9 (7-10) % from baseline
same,"cIAP1/Actin in PBMC, mean (SD)","cIAP-1 [1]; 900 mg, 24h, N=4",11% (18) % from baseline
same,"cIAP1/Actin in PBMC, median (range)","cIAP-1 [1]; 900 mg, 24h, N=4",3 (0-38) % from baseline
same,"cIAP1/Actin in PBMC, mean (SD)","cIAP-1 [1]; 900 mg, 99h, N=4",7% (6) % from baseline
same,"cIAP1/Actin in PBMC, median (range)","cIAP-1 [1]; 900 mg, 99h, N=4",8 (0-14) % from baseline
same,cIAP1 in PBMCs (Western blot),"cIAP-1 [1]; patients with detectable cIAP1, doses above 80 mg",decreased; also recorded: rapid and persistent cIAP1 degradation
same,Oral bioavailability,[2],good
same,cIAP-1 degradation,cIAP-1 [3],rapidly induced degradation of cIAP-1
same,Oral bioavailability,[4],good
